pIC50: −log10 of the molar value. Activity calls are given as the source filed them. The rule behind the calls is not given here.
What was measured:
[1] = biological target: T1, Epidermal growth factor receptor (Homo sapiens, UniProt P00533); experiment: Inhibition of EGFR in human A431 cells assessed as decrease in EGF-induced Akt phosphorylation at 1 uM by immunoblot analysis; type: cell-based; conditions: A-431
[2] = biological target: T1, Epidermal growth factor receptor; experiment: Inhibition of EGFR catalytic domain (unknown origin) assessed as reduction of poly(Glu:Tyr) substrate phosphorylation after 20 mins by ELISA
[3] = biological target: T2, Vascular endothelial growth factor receptor 2 (Homo sapiens, UniProt P35968); experiment: Inhibition of VEGF-induced KDR phosphorylation in human HUVEC cells at 1 uM by immunoblot analysis; type: cell-based
T2 sequence (P35968 whole entry): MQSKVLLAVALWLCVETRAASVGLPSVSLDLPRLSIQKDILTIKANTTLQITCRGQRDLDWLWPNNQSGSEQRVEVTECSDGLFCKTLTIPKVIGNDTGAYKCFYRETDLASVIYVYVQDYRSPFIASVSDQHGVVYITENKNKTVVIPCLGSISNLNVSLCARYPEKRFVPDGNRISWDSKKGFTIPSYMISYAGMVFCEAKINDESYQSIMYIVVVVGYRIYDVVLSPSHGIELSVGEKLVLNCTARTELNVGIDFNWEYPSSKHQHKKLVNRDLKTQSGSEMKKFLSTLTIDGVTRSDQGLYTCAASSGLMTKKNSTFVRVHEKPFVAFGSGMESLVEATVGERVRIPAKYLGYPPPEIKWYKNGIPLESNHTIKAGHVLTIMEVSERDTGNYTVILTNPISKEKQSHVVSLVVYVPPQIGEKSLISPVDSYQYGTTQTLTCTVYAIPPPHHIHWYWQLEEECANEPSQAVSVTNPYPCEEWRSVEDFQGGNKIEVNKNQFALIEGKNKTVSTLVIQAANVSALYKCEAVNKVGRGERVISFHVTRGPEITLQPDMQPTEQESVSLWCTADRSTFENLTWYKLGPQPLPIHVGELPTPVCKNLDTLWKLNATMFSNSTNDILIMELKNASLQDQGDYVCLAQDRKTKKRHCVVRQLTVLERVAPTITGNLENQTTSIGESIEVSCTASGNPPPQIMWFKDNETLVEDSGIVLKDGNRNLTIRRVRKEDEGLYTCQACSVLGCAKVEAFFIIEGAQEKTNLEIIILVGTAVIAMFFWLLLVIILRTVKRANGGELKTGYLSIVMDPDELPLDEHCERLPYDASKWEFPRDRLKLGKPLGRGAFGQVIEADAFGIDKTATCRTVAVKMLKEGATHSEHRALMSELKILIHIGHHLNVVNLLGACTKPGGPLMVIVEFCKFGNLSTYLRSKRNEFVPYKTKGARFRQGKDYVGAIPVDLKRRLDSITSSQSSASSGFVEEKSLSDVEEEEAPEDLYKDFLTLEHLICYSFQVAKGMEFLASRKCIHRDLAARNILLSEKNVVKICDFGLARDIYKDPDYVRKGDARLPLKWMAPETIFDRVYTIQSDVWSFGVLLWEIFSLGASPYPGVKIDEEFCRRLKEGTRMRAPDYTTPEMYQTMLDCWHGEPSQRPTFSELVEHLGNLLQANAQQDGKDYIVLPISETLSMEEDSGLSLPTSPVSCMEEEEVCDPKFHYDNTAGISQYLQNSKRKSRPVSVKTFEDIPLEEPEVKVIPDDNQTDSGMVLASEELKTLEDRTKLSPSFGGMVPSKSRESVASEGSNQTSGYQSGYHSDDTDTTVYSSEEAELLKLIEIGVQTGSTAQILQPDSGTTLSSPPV

[4] = biological target: T1, Epidermal growth factor receptor; experiment: Inhibition of EGF-induced EGFR autophosphorylation in human A431 cells at 1 uM by immunoblot analysis; type: cell-based; conditions: A-431
[5] = biological target: T1, Epidermal growth factor receptor; experiment: Inhibition of EGFR in human A431 cells assessed as decrease in EGF-induced ERK phosphorylation at 1 uM by immunoblot analysis; type: cell-based; conditions: A-431
[6] = biological target: Vascular endothelial growth factor receptor 1 (Homo sapiens, UniProt P17948); experiment: Inhibition of Flt-1 catalytic domain (unknown origin) assessed as reduction of poly(Glu:Tyr) substrate phosphorylation after 20 mins by ELISA
Vascular endothelial growth factor receptor 1, sequence (P17948 whole entry, the tested form may be a part): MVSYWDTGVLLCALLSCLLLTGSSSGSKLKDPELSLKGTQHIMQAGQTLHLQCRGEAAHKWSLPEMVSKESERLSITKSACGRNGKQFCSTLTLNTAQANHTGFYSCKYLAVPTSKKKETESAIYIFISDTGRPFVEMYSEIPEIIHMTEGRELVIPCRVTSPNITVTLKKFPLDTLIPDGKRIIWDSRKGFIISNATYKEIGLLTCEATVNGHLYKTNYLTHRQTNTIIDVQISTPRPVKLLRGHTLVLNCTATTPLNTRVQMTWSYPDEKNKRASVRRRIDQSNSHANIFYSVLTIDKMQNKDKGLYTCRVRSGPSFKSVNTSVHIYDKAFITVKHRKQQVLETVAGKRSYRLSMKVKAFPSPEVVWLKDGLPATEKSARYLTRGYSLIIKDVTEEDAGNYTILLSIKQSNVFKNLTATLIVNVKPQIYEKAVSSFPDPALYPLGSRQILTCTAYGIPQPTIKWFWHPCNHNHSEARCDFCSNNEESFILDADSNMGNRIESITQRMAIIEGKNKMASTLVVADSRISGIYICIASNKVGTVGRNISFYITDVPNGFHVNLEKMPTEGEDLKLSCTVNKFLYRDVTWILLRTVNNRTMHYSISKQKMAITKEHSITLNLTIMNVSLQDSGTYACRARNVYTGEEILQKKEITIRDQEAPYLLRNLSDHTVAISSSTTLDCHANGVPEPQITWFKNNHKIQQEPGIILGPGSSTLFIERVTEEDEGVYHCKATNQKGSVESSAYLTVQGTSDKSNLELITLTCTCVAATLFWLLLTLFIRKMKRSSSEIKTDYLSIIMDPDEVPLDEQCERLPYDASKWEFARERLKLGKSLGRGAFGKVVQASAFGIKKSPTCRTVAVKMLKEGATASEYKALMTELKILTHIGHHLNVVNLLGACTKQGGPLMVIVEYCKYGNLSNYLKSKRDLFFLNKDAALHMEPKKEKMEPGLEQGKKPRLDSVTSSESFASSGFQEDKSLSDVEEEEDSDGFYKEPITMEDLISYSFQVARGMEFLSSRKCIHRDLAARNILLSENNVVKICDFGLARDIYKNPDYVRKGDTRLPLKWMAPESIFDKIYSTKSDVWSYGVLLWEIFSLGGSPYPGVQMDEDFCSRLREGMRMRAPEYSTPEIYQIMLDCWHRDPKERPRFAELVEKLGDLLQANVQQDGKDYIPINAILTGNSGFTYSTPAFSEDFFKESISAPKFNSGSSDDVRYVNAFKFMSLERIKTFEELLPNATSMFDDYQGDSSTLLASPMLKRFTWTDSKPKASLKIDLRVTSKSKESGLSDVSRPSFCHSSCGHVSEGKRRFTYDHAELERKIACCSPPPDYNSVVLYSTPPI

[7] = biological target: T2, Vascular endothelial growth factor receptor 2; experiment: Inhibition of KDR catalytic domain (unknown origin) assessed as reduction of poly(Glu:Tyr) substrate phosphorylation after 20 mins by ELISA
[8] = biological target: Receptor tyrosine-protein kinase erbB-2 (Homo sapiens, UniProt P04626); experiment: Inhibition of HER2 catalytic domain (unknown origin) assessed as reduction of poly(Glu:Tyr) substrate phosphorylation after 20 mins by ELISA
Receptor tyrosine-protein kinase erbB-2, sequence (P04626 whole entry, the tested form may be a part): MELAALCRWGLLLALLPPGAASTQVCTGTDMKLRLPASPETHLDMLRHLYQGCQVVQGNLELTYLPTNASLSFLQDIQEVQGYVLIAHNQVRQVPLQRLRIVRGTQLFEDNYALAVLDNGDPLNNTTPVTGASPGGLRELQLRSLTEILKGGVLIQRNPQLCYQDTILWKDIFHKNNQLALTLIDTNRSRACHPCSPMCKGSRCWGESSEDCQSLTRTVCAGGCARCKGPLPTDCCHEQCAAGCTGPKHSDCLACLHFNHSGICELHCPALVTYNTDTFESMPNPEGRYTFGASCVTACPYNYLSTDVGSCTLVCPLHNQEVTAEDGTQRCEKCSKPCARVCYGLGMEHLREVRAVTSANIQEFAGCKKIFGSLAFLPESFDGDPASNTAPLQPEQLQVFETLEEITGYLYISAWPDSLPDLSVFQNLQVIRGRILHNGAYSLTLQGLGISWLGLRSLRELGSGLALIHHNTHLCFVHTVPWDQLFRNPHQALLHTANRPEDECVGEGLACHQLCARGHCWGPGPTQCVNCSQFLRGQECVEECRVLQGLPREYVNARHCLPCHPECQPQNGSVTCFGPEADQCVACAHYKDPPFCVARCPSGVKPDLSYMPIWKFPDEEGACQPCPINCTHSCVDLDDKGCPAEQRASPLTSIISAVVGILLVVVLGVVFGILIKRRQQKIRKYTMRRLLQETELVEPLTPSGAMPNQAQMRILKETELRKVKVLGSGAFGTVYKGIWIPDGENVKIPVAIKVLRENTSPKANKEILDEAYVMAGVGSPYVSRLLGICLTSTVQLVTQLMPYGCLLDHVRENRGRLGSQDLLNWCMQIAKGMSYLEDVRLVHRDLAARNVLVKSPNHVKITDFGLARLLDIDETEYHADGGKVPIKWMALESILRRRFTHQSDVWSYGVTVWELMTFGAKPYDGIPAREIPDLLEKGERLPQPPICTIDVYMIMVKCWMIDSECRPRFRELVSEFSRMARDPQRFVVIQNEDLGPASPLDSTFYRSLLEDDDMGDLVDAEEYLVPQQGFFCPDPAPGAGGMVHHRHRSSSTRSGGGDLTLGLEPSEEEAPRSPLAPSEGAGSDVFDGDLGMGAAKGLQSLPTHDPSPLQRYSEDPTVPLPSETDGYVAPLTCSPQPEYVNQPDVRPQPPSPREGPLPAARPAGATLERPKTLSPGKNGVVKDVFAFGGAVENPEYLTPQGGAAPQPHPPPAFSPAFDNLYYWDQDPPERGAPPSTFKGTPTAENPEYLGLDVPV

Structure (SMILES) | inhibition [1] | pIC50 [2] | inhibition [3] | inhibition [4] | inhibition [5] | pIC50 [6] | pIC50 [7] | pIC50 [8]
COc1cc2ncnc(Nc3ccc(B(O)O)cc3)c2cc1OC | inactive | < 6.00 | inactive | inactive | inactive | < 6.00 | 7.44 | < 6.00
OB(O)c1ccc2ncnc(Nc3cccc(Cl)c3)c2c1 | Active | 6.19 |  | Active | Active | < 6.00 | < 6.00 | < 6.00
COc1cc2ncnc(Nc3cccc(B(O)O)c3)c2cc1OC | inactive | < 6.00 | inactive | inactive | inactive | < 6.00 | 6.41 | < 6.00
COc1cc2ncnc(Nc3cccc(Cl)c3)c2cc1B(O)O | Active | 6.34 |  | Active | Active | < 6.00 | < 6.00 | < 6.00
COc1cc2ncnc(Nc3ccc(F)c(Cl)c3)c2cc1B1OC(C)(C)C(C)(C)O1 | Active | 6.28 |  | Active | Active | < 6.00 | < 6.00 | < 6.00
COCCOc1cc2ncnc(Nc3ccc(B(O)O)cc3)c2cc1OC | inactive | < 6.00 | Active | inactive | inactive | < 6.00 | 6.07 | < 6.00
COc1cc2ncnc(Nc3cccc(Cl)c3)c2cc1B1OC(C)(C)C(C)(C)O1 | Active | 6.31 |  | Active | Active | < 6.00 | < 6.00 | < 6.00
COc1cc2ncnc(Nc3ccc(F)c(Cl)c3)c2cc1B(O)O | Active | 6.29 |  | Active | Active | < 6.00 | < 6.00 | < 6.00
COCCOc1cc2ncnc(Nc3cccc(B(O)O)c3)c2cc1OC | inactive | < 6.00 | Active | inactive | inactive | < 6.00 | 6.74 | < 6.00
OB(O)c1ccc2ncnc(Nc3ccc(F)c(Cl)c3)c2c1 | Active | 6.10 |  | Active | Active | < 6.00 | < 6.00 | < 6.00

Results, then the compound that gave them:

inhibition [1] | pIC50 [2] | inhibition [3] | inhibition [4] | inhibition [5] | pIC50 [6] | pIC50 [7] | pIC50 [8] | Structure (SMILES)
inactive | < 6.00 | Active | inactive | inactive | < 6.00 | 7.43 | < 6.00 | COCCOc1cc2ncnc(Nc3ccc(B(O)O)cc3)c2cc1OCCOC
Active | 6.24 |  | Active | Active | < 6.00 | < 6.00 | < 6.00 | CC1(C)OB(c2ccc3ncnc(Nc4ccc(F)c(Cl)c4)c3c2)OC1(C)C
Active | 6.23 |  | Active | Active | < 6.00 | < 6.00 | < 6.00 | CC1(C)OB(c2ccc3ncnc(Nc4cccc(Cl)c4)c3c2)OC1(C)C
 |  |  |  |  |  |  | < 6.00 | O=C(Nc1cccc(C(F)(F)F)c1)c1ccccc1NCc1ccncc1
inactive | < 6.00 | Active | inactive | inactive | < 6.00 | 6.72 | < 6.00 | COCCOc1cc2ncnc(Nc3cccc(B(O)O)c3)c2cc1OCCOC

— ChEMBL document CHEMBL3217494, “Selective inhibition of EGFR and VEGFR2 tyrosine kinases controlled by a boronic acid substituent on 4-anilinoquinazolines” (Medchemcomm, 2010)
